According to ChEMBL document CHEMBL1201862, “PubChem BioAssay data set” (2004):
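Exposure lasted 48 hours, with cells grown in 96-well plates and compounds tested at five concentrations. GI50 marks 50% less growth.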 Calls of active or inactive are those of the source. Cut-off read from the data, not from the text of the source: active = GI50 up to about 1.1 µM and inactive = higher.

Experiments:
Assay in all cases: inhibition of tumour cell growth, NCI panel, 48 h
UACC-257 = system: UACC-257
NCI-H226 = system: NCI-H226
RXF 393 = system: RXF 393
SF-295 = system: SF-295
MOLT-4 = system: MOLT-4
OVCAR-4 = system: OVCAR-4
SNB-75 = system: SNB-75
SF-539 = system: SF-539
DLD-1 = system: DLD-1
DMS-114 = system: DMS-114
HL-60 = system: HL-60
HCT-116 = system: HCT-116
U-251 = system: U-251
SW-620 = system: SW-620
OVCAR-3 = system: OVCAR-3
SK-MEL-2 = system: SK-MEL-2
EKVX = system: EKVX
SNB-19 = system: SNB-19
UO-31 = system: UO-31
NCI-H460 = system: NCI-H460

Row | Structure (SMILES) | GI50 (UACC-257) | GI50 (NCI-H226) | GI50 (RXF 393) | GI50 (SF-295) | GI50 (MOLT-4) | GI50 (OVCAR-4) | GI50 (SNB-75) | GI50 (SF-539) | GI50 (DLD-1) | GI50 (DMS-114) | GI50 (HL-60) | GI50 (HCT-116) | GI50 (U-251) | GI50 (SW-620) | GI50 (OVCAR-3) | GI50 (SK-MEL-2) | GI50 (EKVX) | GI50 (SNB-19) | GI50 (UO-31) | GI50 (NCI-H460)
1 | O=C(CCl)NNC1=Nc2ccc(Cl)cc2SC1 | 3.23 µM (inactive) | 2.61 µM (inactive) | 1.9 µM (inactive) | 15.1 µM (inactive) | 1.12 µM (active) | 2.12 µM (inactive) | 2.16 µM (inactive) | 2.02 µM (inactive) | 1.85 µM (inactive) | 1.98 µM (inactive) | 1.55 µM (inactive) | 1.64 µM (inactive) | 2.15 µM (inactive) | 2.04 µM (inactive) | 1.78 µM (inactive) | 3.66 µM (inactive) | 2.07 µM (inactive) | 13.5 µM (inactive) | 1.86 µM (inactive) | 6.79 µM (inactive)
2 | Cc1ccc(NP(=O)(Oc2ccccc2)N(CCCl)CCCl)cc1 (centres undefined) | 28.6 µM (inactive) | 39.6 µM (inactive) | – | 67 µM (inactive) | 9.04 µM (inactive) | 51.3 µM (inactive) | > 100 µM (inactive) | > 100 µM (inactive) | 23.9 µM (inactive) | 34.4 µM (inactive) | 44 µM (inactive) | 21.2 µM (inactive) | > 100 µM (inactive) | > 100 µM (inactive) | 54.6 µM (inactive) | 41.6 µM (inactive) | > 100 µM (inactive) | – | 76.4 µM (inactive) | –
3 | CCCCCn1cc2c3c(cccc31)C1C=C(C)CN(C)[C@@H]1C2.Cc1ccc(C(=O)OC(C(=O)O)C(OC(=O)c2ccc(C)cc2)C(=O)O)cc1 (centres undefined) | 4.21 µM (inactive) | 9.79 µM (inactive) | 5.78 µM (inactive) | 6.17 µM (inactive) | 4.24 µM (inactive) | 5.96 µM (inactive) | 5.42 µM (inactive) | 9.95 µM (inactive) | 6.12 µM (inactive) | 3.47 µM (inactive) | 1.35 µM (inactive) | 4.04 µM (inactive) | 7.13 µM (inactive) | 4.16 µM (inactive) | 6.75 µM (inactive) | 9.18 µM (inactive) | 10.8 µM (inactive) | 10.4 µM (inactive) | 3.86 µM (inactive) | 3.89 µM (inactive)
4 | O=C1OC2(CC1C1(O)C3CC4CC(C3)CC1C4)C1CC3CC(C1)CC2C3 (centres undefined) | > 100 µM (inactive) | > 100 µM (inactive) | > 100 µM (inactive) | 14.5 µM (inactive) | > 100 µM (inactive) | 22.1 µM (inactive) | 40.8 µM (inactive) | > 100 µM (inactive) | > 100 µM (inactive) | 82 µM (inactive) | > 100 µM (inactive) | 49.7 µM (inactive) | – | 65.9 µM (inactive) | 44.6 µM (inactive) | > 100 µM (inactive) | – | – | > 100 µM (inactive) | 32.1 µM (inactive)
5 | COc1ccc(N2C(Cl)C(=O)C2c2c[nH]c3ccccc23)cc1 (centres undefined) | > 100 µM (inactive) | – | > 100 µM (inactive) | > 100 µM (inactive) | > 100 µM (inactive) | > 100 µM (inactive) | > 100 µM (inactive) | > 100 µM (inactive) | – | > 100 µM (inactive) | > 100 µM (inactive) | > 100 µM (inactive) | > 100 µM (inactive) | > 100 µM (inactive) | > 100 µM (inactive) | > 100 µM (inactive) | > 100 µM (inactive) | 91.8 µM (inactive) | 51.9 µM (inactive) | > 100 µM (inactive)
6 | CN/N=C(\C(=O)Nc1ccc(C)c(C)c1)C(C(=O)OC)c1nc2ccc([N+](=O)[O-])cc2nc1O (centres undefined) | > 100 µM (inactive) | > 100 µM (inactive) | > 100 µM (inactive) | > 100 µM (inactive) | > 100 µM (inactive) | > 100 µM (inactive) | > 100 µM (inactive) | > 100 µM (inactive) | > 100 µM (inactive) | 42.2 µM (inactive) | 50.9 µM (inactive) | > 100 µM (inactive) | > 100 µM (inactive) | > 100 µM (inactive) | – | > 100 µM (inactive) | 60.5 µM (inactive) | > 100 µM (inactive) | > 100 µM (inactive) | > 100 µM (inactive)
7 | Cc1ccc([N+](=O)[O-])cc1S(=O)(=O)Nc1ccc(C2=NNC(c3ccccc3O)C2)cc1 (centres undefined) | 25.9 µM (inactive) | 48.3 µM (inactive) | 15.2 µM (inactive) | 31.7 µM (inactive) | 24.1 µM (inactive) | 19.8 µM (inactive) | 33.2 µM (inactive) | 40.8 µM (inactive) | – | – | 12.1 µM (inactive) | 21.9 µM (inactive) | – | 31 µM (inactive) | 13.5 µM (inactive) | 25.2 µM (inactive) | 20.9 µM (inactive) | 33.8 µM (inactive) | 17.9 µM (inactive) | 25.7 µM (inactive)
8 | CC1(C(=O)O)CCC(C(=O)O)C(C)(C)O1 (centres undefined) | > 100 µM (inactive) | > 100 µM (inactive) | > 100 µM (inactive) | > 100 µM (inactive) | > 100 µM (inactive) | > 100 µM (inactive) | > 100 µM (inactive) | > 100 µM (inactive) | – | – | – | > 100 µM (inactive) | > 100 µM (inactive) | > 100 µM (inactive) | 29.2 µM (inactive) | > 100 µM (inactive) | > 100 µM (inactive) | > 100 µM (inactive) | > 100 µM (inactive) | > 100 µM (inactive)
9 | N#C/C(=C\c1ccncc1)c1csc2ccccc12 | 23.7 µM (inactive) | 26.4 µM (inactive) | 27.7 µM (inactive) | 32.4 µM (inactive) | 15.5 µM (inactive) | 26.2 µM (inactive) | 24.4 µM (inactive) | 21.4 µM (inactive) | 28.3 µM (inactive) | – | 15.1 µM (inactive) | 16.6 µM (inactive) | 23.5 µM (inactive) | 26.5 µM (inactive) | 21.3 µM (inactive) | 17.2 µM (inactive) | 23.8 µM (inactive) | 26 µM (inactive) | 24.9 µM (inactive) | 24.9 µM (inactive)
10 | COC(Cc1cc(C(O)(c2ccc(C(C)(C)C)cc2)c2cc(CC(OC)(c3cc(C(OC)(c4ccc(C(C)(C)C)cc4)c4ccc(C(C)(C)C)cc4)c(C)cc3C)c3cc(C(OC)(c4ccc(C(C)(C)C)cc4)c4ccc(C(C)(C)C)cc4)c(C)cc3C)c(C)cc2C)c(C)cc1C)(c1cc(C(OC)(c2ccc(C(C)(C)C)cc2)c2ccc(C(C)(C)C)cc2)c(C)cc1C)c1cc(C(OC)(c2ccc(C(C)(C)C)cc2)c2ccc(C(C)(C)C)cc2)c(C)cc1C | > 75 µM (inactive) | > 75 µM (inactive) | > 75 µM (inactive) | > 75 µM (inactive) | > 75 µM (inactive) | > 75 µM (inactive) | > 75 µM (inactive) | > 75 µM (inactive) | – | – | > 75 µM (inactive) | > 75 µM (inactive) | > 75 µM (inactive) | > 75 µM (inactive) | > 75 µM (inactive) | > 75 µM (inactive) | > 75 µM (inactive) | > 75 µM (inactive) | > 75 µM (inactive) | > 75 µM (inactive)
11 | Cc1ccc2[nH]c3c(C)c4ccncc4c(C)c3c2c1 | 1.41 µM (inactive) | 1.72 µM (inactive) | 0.226 µM (active) | 1.08 µM (active) | 0.231 µM (active) | 1.08 µM (active) | 1.65 µM (inactive) | 1.33 µM (inactive) | 0.333 µM (active) | 0.369 µM (active) | 1.22 µM (inactive) | 0.322 µM (active) | 1.16 µM (inactive) | 0.384 µM (active) | 1.12 µM (active) | 1.59 µM (inactive) | 1.47 µM (inactive) | 1.24 µM (inactive) | 1.58 µM (inactive) | 0.456 µM (active)
12 | Cc1nc2c(c(=O)[nH]1)S/C(=C(/C#N)c1nc3ccccc3[nH]1)N2c1ccccc1 | > 100 µM (inactive) | – | > 100 µM (inactive) | > 100 µM (inactive) | > 100 µM (inactive) | > 100 µM (inactive) | > 100 µM (inactive) | > 100 µM (inactive) | > 100 µM (inactive) | > 100 µM (inactive) | > 100 µM (inactive) | > 100 µM (inactive) | > 100 µM (inactive) | > 100 µM (inactive) | > 100 µM (inactive) | > 100 µM (inactive) | > 100 µM (inactive) | > 100 µM (inactive) | > 100 µM (inactive) | > 100 µM (inactive)
13 | Cc1cc(C)c(S(=O)(=O)N(CCCCCN)OCCCN)c(C)c1 | 17.1 µM (inactive) | 14.8 µM (inactive) | 10.3 µM (inactive) | 15.1 µM (inactive) | 14.4 µM (inactive) | 21.5 µM (inactive) | 15.3 µM (inactive) | 11.9 µM (inactive) | – | – | – | 17.9 µM (inactive) | 18.3 µM (inactive) | 19 µM (inactive) | 17.5 µM (inactive) | 17.9 µM (inactive) | 15.9 µM (inactive) | 20.3 µM (inactive) | 14.1 µM (inactive) | 16.8 µM (inactive)
14 | CC(=O)c1c(-c2ccco2)c(C#N)c(=S)n(C2OC(CO)C(O)C(O)C2O)c1C (centres undefined) | > 100 µM (inactive) | – | > 100 µM (inactive) | > 100 µM (inactive) | 47.2 µM (inactive) | 75 µM (inactive) | 47.5 µM (inactive) | 56 µM (inactive) | – | – | 50.9 µM (inactive) | > 100 µM (inactive) | 51.1 µM (inactive) | > 100 µM (inactive) | > 100 µM (inactive) | – | 82 µM (inactive) | 83.6 µM (inactive) | 56.6 µM (inactive) | > 100 µM (inactive)
